Test [1] deals with PRMT5/MEP50 complex (Homo sapiens (Human), UniProt O14744). Nature of the test: Biochemical assay: PRMT5/MEP50 methylation of histone H4 based AcH4-23, SPA readout. Particulars: PRMT5/MEP50 2.5 nM, 300 nM AcH4-23, 1 μM 3H-SAM. As to the method:
Biochemical Assay Protocol
Compounds were solubilized and 3-fold diluted in 100% DMSO. […] Standard reactions were performed in a total volume of 30 μl in assay buffer, with 300 nM histone H4 based AcH4-23 (Anaspec: AS-65002) as substrate. To this was added the PRMT5/MEP50 complex diluted to provide a final assay concentration of 2.5 nM and the compounds were allowed to preincubate for 20 minutes at 37° C. The reaction was initiated by adding S-[3H-methyl]-adenosyl-L-methionine (PerkinElmer: NET155001MC) to final concentration of 1 μM. Following a 30 minutes incubation at 37° C., the reaction was stopped by adding 25 μL of 8M Guanidine HCl. Prepare streptavidin YSI SPA beads (Perkinelmer: RPNQ0012) at 0.3 mg/mL in assay buffer. To each reaction, add 150 μL of SPA beads suspension, and incubated while shaking at room temperature for 30 minutes. The plate was centrifuged at 100×g for 30 second before reading in a scintillation counter. IC50 values were determined by fitting the data to the standard 4 parameters with Hill Slope using GraphPad Prism software.

Test [2] concerns U-87 MG cells. Put plainly: Cell proliferation assay (CCK-8, day 10) in U-87 MG cells. It counts as cell-based. The conditions noted are these: Homo sapiens, 240 h, U-87 MG cell line, read-out: Prolif. IC50. As for the experimental part:
Cell Proliferation Assay to Determine IC50 in Granta-519 and U-87 MG Cells
One day before experiment, Granta-519 cells were passaged to a density of 0.5×10^6 cells/ml. U-87 MG cells were trypsinized and 2,000 cells were seeded into 96-well plates and allow to grow overnight. On the day of experiment (day 0), Granta-519 Cells were spun down at 1,500 rpm for 4 min, resuspended in fresh medium to 0.5×10^6 cells/ml and 190 ul of cells were added to 96 well plates. For U-87 MG cells, old medium was removed and replaced with 190 uL fresh medium. Compound working stocks were first diluted at 1:50 with fresh medium in 96 well plate and 10 μL of diluted drugs were added to 96 well plates containing cells and incubated for 3 days. DMSO was used a vehicle control.
One day 3, 50 uL of Granta-519 cells were transferred to a new 96-well plate and 140 uL fresh medium was added. For U-87 MG cells, old medium was removed and replaced with 190 uL fresh medium. Compound working stocks were freshly diluted at 1:50 with medium and 10 μL of diluted drugs were added to cells and grow for 3additional days. The same process was repeated on day 6. Cells were allowed to grow for additional 4 days.
On day 10, 100 uL Granta-519 cells were transferred to a new 96 well plate and 10 μL of Cell Counting Kit-8 (CCK-8, Jojindo, CK04-13) solution was added. For U-87 MG cells, old medium was removed and replaced with 100 uL fresh medium and 10 uL CCK-8 solution was added. Plates were incubated in CO2 incubator for 2 hours (Granta-519 cells) or 30 min (U-87 MG cells) and OD450 values were measured with a microplate reader (iMark microplate reader, Bio-Rad). Percentage of viable cells, relative to DMSO vehicle control, were calculated and plotted in Graphpad Prism ([Inhibitor] vs. normalized response-Variable slope) to determine proliferation IC50 values on day 10.

Test [3] concerns sDMA marks (SmD3me2s) in Granta-519 cells. Nature of the test: Western blotting for symmetric di-methyl arginine (sDMA) marks in Granta-519 cells. In kind it is cell-based. Particulars: Homo sapiens, 72 h; Granta-519 cell line (value in brackets), 3 days. As to the method:
(§1) Cell Treatment and Western Blotting for Detecting Symmetric Di-Methyl Arginine (sDMA) Marks
(§2) Compound Titration and Cell Culture:
(§3) Compounds were dissolved in DMSO to make 10 mM stock and 3-fold series dilutions were further conducted to make working stocks top at 1 mM. Granta-519 cells were maintained in PRMI 1640 (Corning Cellgro, Catalog #: 10-040-CV) supplemented with 10% v/v FBS (GE Healthcare, Catalog #: SH30910.03) and U-87 MG cells were maintained in DMEM (Corning Cellgro, Catalog #: 10-013-CV) with 10% FBS and 2 mM Glutamin (Corning Cellgro, Catalog #25005CV).
To determine enzyme inhibition IC50 values in Granta-519 and U-87 MG cells using Western Blot analysis. One day before experiment, Granta-519 cells were passaged to a density of 0.5×10^6 cells/ml. U-87 MG cells were trypsinized and 4×10^5 cells were seeded into 6-well plates and allow to grow overnight. […]
Cells were harvested 3 days later, resuspended in 15 uL PBS, lysed in 4% SDS, and homogenized by passing through homogenizer column (Omega Biotek, Catalog #: HCR003). Total protein concentrations were determined by BCA assay (ThermoFisher Scientific, Catalog #: 23225). […] SmD3me2s bands were quantified by ImageJ. […] IC50 values were calculated using Graphpad Prism ([Inhibitor] vs. normalized response-Variable slope).

For test [4], the system named is sDMA marks (SmD3me2s) in U-87 MG cells. Nature of the test: Western blotting for symmetric di-methyl arginine (sDMA) marks in U-87 MG cells. In kind it is cell-based. The conditions noted are these: Homo sapiens, 72 h; U-87 MG cell line, 3 days. As to the method:
as §1, §2, §3
To determine enzyme inhibition IC50 values in Granta-519 and U-87 MG cells using Western Blot analysis. One day before experiment, Granta-519 cells were passaged to a density of 0.5×10^6 cells/ml. U-87 MG cells were trypsinized and 4×10^5 cells were seeded into 6-well plates and allow to grow overnight. The next day, Granta-519 cells were spun down at 1,500 rpm for 4 min, resuspend in fresh medium at 0.5×10^6 cells/ml and 3 mL of culture (1.5×10^6 cells) were seeded into 6 well plate. Eight-point, 3-fold serial dilutions of compound working stocks were added to cells (3 ul, 1:1,000 dilution, DMSO concentration was 0.1%; final top concentration at 1 uM) and incubated for 3 days. Cells incubated with DMSO was used as a vehicle control.
Cells were harvested 3 days later, resuspended in 15 uL PBS, lysed in 4% SDS, and homogenized by passing through homogenizer column (Omega Biotek, Catalog #: HCR003). Total protein concentrations were determined by BCA assay (ThermoFisher Scientific, Catalog #: 23225). Lysates were mixed with 5× Laemmli buffer and boiled for 5 min. Forty ug of total protein was separated on SDS-PAGE gels (Bio-Rad, catalog #: 4568083, 4568043), transferred to PVDF membrane, blocked with 5% dry milk (Bio-Rad, Catalog #: 1706404) in TBS with 0.1% v/v Tween 20 (TBST) for 1 hour at room temperature (RT), and incubated with primary antibodies (sDMA: Cell signaling, Catalog #: 13222, 1:3,000; β-Actin: sigma, Catalog #: 1:5,000) in 5% dry milk in TBST at 4° C. overnight. The next day, membranes were washed with TBST, 5×5 min, and incubated with HRP conjugated seconded antibody (GE Healthcare; Catalog #: NA934-1ML, NA931-1ML; 1:5,000) for 2 hours at RT, followed by 5×5 min washes with TBST, and incubation with ECL substrates (Bio-Rad, Catalog #: 1705061, 1705062). Chemiluminescent signal was captured with Fluochem HD2 imager (Proteinsimple). SmD3me2s bands were quantified by ImageJ. Signals were normalized to β-Actin and DMSO control. IC50 values were calculated using Graphpad Prism ([Inhibitor] vs. normalized response-Variable slope).

Sequence of PRMT5/MEP50 complex (O14744 whole entry): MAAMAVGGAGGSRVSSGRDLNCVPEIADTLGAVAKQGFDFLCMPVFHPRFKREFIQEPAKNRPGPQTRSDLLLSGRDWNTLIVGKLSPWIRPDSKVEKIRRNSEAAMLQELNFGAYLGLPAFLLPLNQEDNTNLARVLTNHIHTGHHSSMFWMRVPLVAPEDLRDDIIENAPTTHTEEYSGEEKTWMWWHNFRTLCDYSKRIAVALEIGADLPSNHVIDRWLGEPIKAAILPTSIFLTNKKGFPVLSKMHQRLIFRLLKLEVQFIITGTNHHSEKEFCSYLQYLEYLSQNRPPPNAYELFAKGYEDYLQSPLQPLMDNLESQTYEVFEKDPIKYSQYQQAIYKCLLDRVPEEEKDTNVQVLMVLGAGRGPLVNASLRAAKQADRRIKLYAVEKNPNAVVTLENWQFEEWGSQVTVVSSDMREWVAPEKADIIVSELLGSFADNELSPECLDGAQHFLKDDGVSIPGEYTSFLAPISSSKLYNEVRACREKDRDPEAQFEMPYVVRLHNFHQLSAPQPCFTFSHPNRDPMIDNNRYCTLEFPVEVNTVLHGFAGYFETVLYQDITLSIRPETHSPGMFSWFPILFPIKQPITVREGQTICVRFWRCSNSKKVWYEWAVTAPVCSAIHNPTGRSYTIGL
Sequence of PRMT5/MEP50 complex (Q9BQA1 whole entry partner): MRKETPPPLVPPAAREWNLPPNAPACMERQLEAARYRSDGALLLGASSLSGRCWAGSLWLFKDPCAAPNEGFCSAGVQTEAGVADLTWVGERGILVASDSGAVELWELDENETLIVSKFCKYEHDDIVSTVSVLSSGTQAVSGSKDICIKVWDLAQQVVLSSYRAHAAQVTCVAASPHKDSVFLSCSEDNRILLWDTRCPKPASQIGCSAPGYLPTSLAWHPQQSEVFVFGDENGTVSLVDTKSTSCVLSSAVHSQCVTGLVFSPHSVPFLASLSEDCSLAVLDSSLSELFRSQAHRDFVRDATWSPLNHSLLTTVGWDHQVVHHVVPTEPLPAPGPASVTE

Turning to `Nc1ncnc2c1ccn2[C@@H]1O[C@H]([C@@H]2OCc3cc(Cl)ccc32)[C@@H](O)[C@H]1O` [Example 1A, (2R,3R,4S,5S)-2-(4-amino-7H-pyrrolo[2,3-d]pyrimidin-7-yl)-5-((R)-5-chloro-1,3-dihydroisobenzofuran-1-yl)tetrahydrofuran-3,4-diol], the IC50 in test [1] worked out at 3.8 nM; in test [2], 142 nM; in test [3] it was 27 nM; in test [4], 120 nM.

Take `Cc1ncnc2c1ccn2[C@@H]1O[C@H]([C@@H]2OCCc3cc(Cl)sc32)[C@@H](O)[C@H]1O` [Example 89, (2S,3S,4R,5R)-2-((S)-2-chloro-4,7-dihydro-5H-thieno[2,3-c]pyran-7-yl)-5-(4-methyl-7H-pyrrolo[2,3-d]pyrimidin-7-yl)tetrahydrofuran-3,4-diol]: the IC50 in test [1] was 15.7 nM; in test [2] it was 179 nM; in test [4] it was 84.4 nM.

For the compound `Nc1ncnc2c1ccn2[C@@H]1O[C@H]([C@@H]2OCCc3cc(Cl)ccc32)[C@@H](O)[C@H]1O` [Example 68, (2R,3R,4S,5S)-2-(4-amino-7H-pyrrolo[2,3-d]pyrimidin-7-yl)-5-((R)-6-chloroisochroman-1-yl)tetrahydrofuran-3,4-diol], the results for the IC50 in test [1], in test [2] and in test [4] were 1.2 nM, 9.1 nM and 2.58 nM, respectively.

Regarding `Cc1ncnc2c1ccn2[C@@H]1O[C@H]([C@@H]2OCCc3cc(Cl)ccc32)[C@@H](O)[C@H]1O` [Example 22, (2S,3S,4R,5R)-2-((R)-6-chloroisochroman-1-yl)-5-(4-methyl-7H-pyrrolo[2,3-d]pyrimidin-7-yl)tetrahydrofuran-3,4-diol], the IC50 in test [1] was found to be 4.8 nM; in test [2], 54 nM; in test [4], 17.6 nM.

Consider `Cc1ncnc2c1ccn2[C@@H]1O[C@H]([C@@H]2OCCc3cc(Cl)c(Cl)cc32)[C@@H](O)[C@H]1O` [Example 87, (2S,3S,4R,5R)-2-((R)-6,7-dichloroisochroman-1-yl)-5-(4-methyl-7H-pyrrolo[2,3-d]pyrimidin-7-yl)tetrahydrofuran-3,4-diol], for which the IC50 was found to be 7.7 nM in test [1], 509 nM in test [2] and 120 nM in test [4].

As to `Cc1ncnc2c1ccn2[C@@H]1O[C@H]([C@@H]2NCCc3cc(Cl)ccc32)[C@@H](O)[C@H]1O` [Example 98, (2R,3S,4R,5R)-2-[(1R)-6-chloro-1,2,3,4-tetrahydroisoquinolin-1-yl]-5-(4-methylpyrrolo[2,3-d]pyrimidin-7-yl)tetrahydrofuran-3,4-diol], the IC50 in test [1] is 11.9 nM; in test [2], 662 nM; in test [4], 579 nM.

As to `Nc1ncnc2c1ccn2[C@@H]1C[C@H]([C@@H]2OC(=O)c3cc(Cl)ccc32)[C@@H](O)[C@H]1O` [Example 3A, (S)-3-((1S,2R,3S,4R)-4-(4-amino-7H-pyrrolo[2,3-d]pyrimidin-7-yl)-2,3-dihydroxycyclopentyl)-6-chloroisobenzofuran-1(3H)-one], the values for the IC50 in test [1] and in test [3] were 21 nM and 1620 nM, respectively.

`Nc1ncnc2c1ccn2[C@@H]1O[C@H]([C@@H]2OCc3cc(F)c(F)cc32)[C@@H](O)[C@H]1O` [Example 4, (2R,3R,4S,5S)-2-(4-amino-7H-pyrrolo[2,3-d]pyrimidin-7-yl)-5-((R)-5,6-difluoro-1,3-dihydroisobenzofuran-1-yl)tetrahydrofuran-3,4-diol]: the IC50 in test [1] came to 1.5 nM; in test [2], 95 nM; in test [4], 31 nM.

In the case of `Nc1ncnc2c1ccn2[C@@H]1C[C@H]([C@@H]2OCc3cc(Cl)ccc32)[C@@H](O)[C@H]1O` [Example 2B, (1R,2S,3R,5S)-3-(4-amino-7H-pyrrolo[2,3-d]pyrimidin-7-yl)-5-((S)-5-chloro-1,3-dihydroisobenzofuran-1-yl)cyclopentane-1,2-diol], the values for the IC50 in test [1], in test [2] and in test [4] were 31 nM, over 1000 nM and 563 nM, respectively.

Turning to `Cc1ncnc2c1c(F)cn2[C@@H]1O[C@H]([C@@H]2OCCc3cc(Cl)ccc32)[C@@H](O)[C@H]1O` [Example 85, (2S,3S,4R,5R)-2-((R)-6-chloroisochroman-1-yl)-5-(5-fluoro-4-methyl-7H-pyrrolo[2,3-d]pyrimidin-7-yl)tetrahydrofuran-3,4-diol], the half-inhibitory concentration (IC50) in test [1] came out at 14.7 nM; in test [2], 304 nM; in test [4], 173 nM.

Consider `CNc1ncnc2c1ccn2[C@@H]1O[C@H]([C@@H]2OCCc3cc(Cl)ccc32)[C@@H](O)[C@H]1O` [Example 69, (2S,3S,4R,5R)-2-((R)-6-chloroisochroman-1-yl)-5-(4-(methylamino)-7H-pyrrolo[2,3-d]pyrimidin-7-yl)tetrahydrofuran-3,4-diol], for which the IC50 in test [1] was determined as 14.9 nM; in test [2] it was 181 nM; in test [4], 109 nM.
